Measured values: ChEMBL document CHEMBL5143608, “Peptide-based long-acting co-agonists of GLP-1 and cholecystokinin 1 receptors as novel anti-diabesity agents” (Eur J Med Chem, 2022)
Calls of active or inactive are those of the source. The calls are words filed in the database; no cut-off is given here.

Legend:
Mus musculus [1] = assay: Anti-diabesity activity against db/db mouse assessed as reduction in HbA1c level at 25 nmol/kg, sc administered every 2 days and measured on day 43; format: functional, organism-based; settings: time 43.0 day
[2] = AUC (0 to infinity) in Sprague-Dawley rat at 25 nmol/kg, iv by LC-MS/MS analysis; format: ADME, organism-based; design: time infinity, dose 25 nmol/kg, route iv; settings: in vivo
[3] = AUC (0 to infinity) in Sprague-Dawley rat at 25 nmol/kg, sc by LC-MS/MS analysis; format: ADME, organism-based; design: time infinity, dose 25 nmol/kg, route sc; settings: in vivo
Mus musculus [4] = assay: Anorectic activity in ICR mouse assessed as decrease in food intake at 25 nmol/kg, ip and measured after 9 hrs; format: functional, organism-based
Mus musculus [5] = assay: Hypoglycemic activity in db/db mouse assessed as improvement in glucose tolerance at 25 nmol/kg, ip administered 30 min before oral glucose administration and measured upto 120 mins by OGTT; format: functional, organism-based
Mus musculus [6] = assay: Hypoglycemic activity in sc dosed non-fasted db/db mouse assessed as reduction in blood glucose level measured upto 48 hrs; format: functional, organism-based; settings: dose 10-100 nmol/kg, DDE = dose-dependent effect
Mus musculus [7] = assay: Anti-diabesity activity in DIO C57BL/6 mouse assessed as reduction in body weight at 100 nmol/kg, sc administered once daily for 7 days; format: functional; settings: C57BL/6, 168 h, time 7 day
[8] = Renal toxicity in DIO C57BL/6 mouse assessed as blood urea nitrogen level at 100 nmol/kg, sc administered once daily for 7 days; format: organism-based; settings: in vivo, 168 h, time 7 day
[9] = Pancreatic insult activity in DIO C57BL/6 mouse assessed as increase in lipase level in plasma at 100 nmol/kg, sc administered once daily for 7 days; format: toxicity, organism-based; settings: in vivo, 168 h, time 7 day
Mus musculus [10] = assay: Anti-diabesity activity against DIO C57BL/6 mouse assessed as reduction in cumulative food intake at 25 nmol/kg, sc administered every 2 days for 3 weeks; format: functional, organism-based; settings: time 21.0 day
Mus musculus [11] = assay: Anti-diabesity activity against DIO C57BL/6 mouse assessed as reduction in fasted blood glucose level at 25 nmol/kg, sc administered every 2 days for 3 weeks; format: functional, organism-based; settings: time 21.0 day
Mus musculus [12] = assay: Anti-diabesity activity against DIO C57BL/6 mouse assessed as increase in insulin sensitivity by measuring reduction in circulating insulin levels at 25 nmol/kg, sc administered every 2 days for 3 weeks by ELISA; format: functional, organism-based; settings: time 21.0 day
Mus musculus [13] = assay: Anti-diabesity activity against DIO C57BL/6 mouse assessed as reduction in cholesterol level in serum at 25 nmol/kg, sc administered every 2 days for 3 weeks; format: functional, organism-based; settings: time 21.0 day
Mus musculus [14] = assay: Anti-diabesity activity against DIO C57BL/6 mouse assessed as reduction in triglycerides level in serum at 25 nmol/kg, sc administered every 2 days for 3 weeks; format: functional, organism-based; settings: time 21.0 day
Mus musculus [15] = assay: Anti-diabesity activity against db/db mouse assessed as reduction in body weight at 25 nmol/kg, sc administered every 2 days for 3 weeks; format: functional, organism-based; settings: time 21.0 day
Mus musculus [16] = assay: Anti-diabesity activity against db/db mouse assessed as increase in islet area at 25 nmol/kg, sc administered every 2 days for 3 weeks by H and E staining based analysis; format: functional, organism-based; settings: time 21.0 day
Mus musculus [17] = assay: Anti-diabesity activity against db/db mouse assessed as increase in islet number at 25 nmol/kg, sc administered every 2 days for 3 weeks by H and E staining based analysis; format: functional, organism-based; settings: time 21.0 day
Mus musculus [18] = assay: Anti-diabesity activity against db/db mouse assessed as improvement in glucose tolerance at 25 nmol/kg, sc administered every 2 days for 12 weeks by OGTT; format: functional, organism-based
Mus musculus [19] = assay: Anti-diabesity activity in DIO C57BL/6 mouse assessed as reduction in body weight at 100 nmol/kg, sc administered every 2 days for 10 days; format: functional; settings: C57BL/6, 240 h, time 10 day
Mus musculus [20] = assay: Anorectic activity in ICR mouse assessed as decrease in food intake at 25 nmol/kg, ip and measured after 24 hrs; format: functional, organism-based
[21] = Renal toxicity in db/db mouse assessed as creatinine level in serum at 100 nmol/kg, sc administered once daily for 7 days; format: organism-based; settings: in vivo, 168 h, time 7 day
[22] = Hepatotoxicity in db/db mouse assessed as aspartate aminotransferase level in plasma at 100 nmol/kg, sc administered once daily for 7 days; format: toxicity, organism-based; settings: in vivo, 168 h, time 7 day
Rattus norvegicus = assay: Anorectic activity in Sprague-Dawley rat assessed as reduction in food intake at 25 nmol/kg,ip measured after 24 hrs; format: functional
[23] = Toxicity in Sprague-Dawley rat assessed as induction of Pica behaviour by measuring kaolin intake at 25 nmol/kg, ip measured after 24 hrs; format: organism-based; settings: in vivo
Mus musculus [24] = assay: Anti-diabesity activity against DIO C57BL/6 mouse assessed as reduction in leptin level in plasma at 25 nmol/kg, sc administered every 2 days for 3 weeks by ELISA; format: functional, organism-based; settings: time 21.0 day
[25] = Renal toxicity in DIO C57BL/6 mouse assessed as creatinine level in serum at 25 nmol/kg, sc administered every 2 days for 3 weeks; format: organism-based; settings: in vivo, 504 h, time 21 day
[26] = Renal toxicity in DIO C57BL/6 mouse assessed as blood urea nitrogen level at 25 nmol/kg, sc administered every 2 days for 3 weeks; format: organism-based; settings: in vivo, 504 h, time 21 day
[27] = Hepatotoxicity in DIO C57BL/6 mouse assessed as aspartate aminotransferase level in serum at 25 nmol/kg, sc administered every 2 days for 3 weeks; format: toxicity, organism-based; settings: in vivo, 504 h, time 21 day
[28] = Pancreatic insult activity in DIO C57BL/6 mouse assessed as lipase level in serum at 25 nmol/kg, sc administered every 2 days for 3 weeks; format: toxicity, organism-based; settings: in vivo, 504 h, time 21 day
Mus musculus [29] = assay: Anti-diabesity activity against db/db mouse assessed as improvement in glucose tolerance at 25 nmol/kg, sc administered every 2 days for 3 weeks by OGTT; format: functional, organism-based; settings: time 21.0 day
Mus musculus [30] = assay: Anti-diabesity activity against db/db mouse assessed as improvement in glucose tolerance level at 25 nmol/kg, sc administered every 2 days for 6 weeks followed by saline treatment for 6 weeks and measured during first 6 weeks by OGTT; format: functional, organism-based
Mus musculus [31] = assay: Anti-diabesity activity against db/db mouse assessed as reduction in fasting blood glucose level at 25 nmol/kg, sc administered every 2 days for 6 weeks followed by saline treatment for 6 weeks and measured during first 6 weeks; format: functional, organism-based
Mus musculus [32] = assay: Anti-diabesity activity against db/db mouse assessed as improvement in glucose tolerance level at 25 nmol/kg, sc administered every 2 days for 6 weeks followed by saline treatment for 6 weeks and measured during second 6 weeks by OGTT; format: functional, organism-based
Mus musculus [33] = assay: Anti-diabesity activity against db/db mouse assessed as reduction in HbA1c level at 25 nmol/kg, sc administered every 2 days for 6 weeks followed by saline treatment for 6 weeks and measured during first 6 weeks; format: functional, organism-based
Mus musculus [34] = assay: Anti-diabesity activity against db/db mouse assessed as increase in insulin sensitivity by measuring reduction in plasma insulin level at 25 nmol/kg, sc administered every 2 days for 12 weeks by ELISA; format: functional, organism-based
[35] = Hepatotoxicity in db/db mouse assessed as alanine aminotransferase level in plasma at 25 nmol/kg, sc administered every 2 days for 12 weeks; format: toxicity, organism-based; settings: in vivo, 2016 h
[36] = Renal toxicity in db/db mouse assessed as creatinine level in serum at 25 nmol/kg, sc administered every 2 days for 12 weeks; format: organism-based; settings: in vivo, 2016 h
[37] = Pancreatic insult activity in db/db mouse assessed as increase in lipase level in serum at 25 nmol/kg, sc administered every 2 days for 12 weeks; format: toxicity, organism-based; settings: in vivo, 2016 h

| AUC(0-inf) [2] [ng·h/mL] | AUC(0-inf) [3] [ng·h/mL] | SMILES | Activity (Mus musculus [1]) | Activity (Mus musculus [4]) | Activity (Mus musculus [5]) | Activity (Mus musculus [6]) | inhibition in vivo at 0.1 µmol/kg (Mus musculus [7]) [%] | Activity [8] | Activity [9] | Activity (Mus musculus [10]) | Activity (Mus musculus [11]) | Activity (Mus musculus [12]) | Activity (Mus musculus [13]) | Activity (Mus musculus [14]) | Activity (Mus musculus [15]) | Activity (Mus musculus [16]) | Activity (Mus musculus [17]) | Activity (Mus musculus [18]) | inhibition in vivo at 0.1 µmol/kg (Mus musculus [19]) [%] | Activity (Mus musculus [20]) | also measured |
| --- | --- | --- | --- | --- | --- | --- | --- | --- | --- | --- | --- | --- | --- | --- | --- | --- | --- | --- | --- | --- | --- |
| 6050 | 5510 | CCCC[C@H](NC(=O)[C@H](Cc1ccc(CS(=O)(=O)O)cc1)NC(=O)[C@H](CC(=O)O)NC(=O)COCCOCCNC(=O)COCCOCCNC(=O)[C@H](CCCNC(=N)N)NC(=O)CNC(=O)[C@H](CCCCN)NC(=O)[C@@H](NC(=O)[C@H](CC(C)C)NC(=O)[C@H](Cc1c[nH]c2ccccc12)NC(=O)[C@H](C)NC(=O)[C@@H](NC(=O)[C@H](Cc1ccccc1)NC(=O)[C@H](CCC(=O)O)NC(=O)[C@H](CCCCNC(=O)COCCOCCNC(=O)COCCOCCNC(=O)CC[C@H](NC(=O)CCCCCCCCCCCCCCCCC(=O)O)C(=O)O)NC(=O)[C@H](C)NC(=O)[C@H](C)NC(=O)[C@H](CCC(N)=O)NC(=O)CNC(=O)[C@H](CCC(=O)O)NC(=O)[C@H](CC(C)C)NC(=O)[C@H](Cc1ccc(O)cc1)NC(=O)[C@H](CO)NC(=O)[C@H](CO)NC(=O)[C@@H](NC(=O)[C@H](CC(=O)O)NC(=O)[C@H](CO)NC(=O)[C@@H](NC(=O)[C@H](Cc1ccccc1)NC(=O)[C@@H](NC(=O)CNC(=O)[C@H](CCC(=O)O)NC(=O)[C@H](C)NC(=O)[C@@H](N)Cc1cnc[nH]1)[C@@H](C)O)[C@@H](C)O)C(C)C)[C@@H](C)CC)C(C)C)C(=O)NCC(=O)N[C@@H](Cc1c[nH]c2ccccc12)C(=O)N[C@@H](CCCC)C(=O)N(C)[C@H](CC(=O)O)C(=O)N(C)[C@@H](Cc1ccccc1)C(N)=O | Active | Active | Active | Dde | 19.2 | Non-Toxic | Non-Toxic | Active | Active | Active | Active | Active | Active | Active | Active | Active | 27.1 | Active | Activity [21]: Non-Toxic; Activity [22]: Non-Toxic; inhibition in vivo at 0.025 µmol/kg (Rattus norvegicus): 28%; Activity [23]: Non-Toxic; Activity (Mus musculus [24]): Active; Activity [25]: Non-Toxic; Activity [26]: Non-Toxic; Activity [27]: Non-Toxic; Activity [28]: Non-Toxic; Activity (Mus musculus [29]): Active; Activity (Mus musculus [30]): Active; Activity (Mus musculus [31]): Active; Activity (Mus musculus [32]): Active; Activity (Mus musculus [33]): Active; Activity (Mus musculus [34]): Active; Activity [35]: Non-Toxic; Activity [36]: Non-Toxic; Activity [37]: Toxic |
| 17600 | 15200 | CCCC[C@H](NC(=O)[C@H](Cc1ccc(CS(=O)(=O)O)cc1)NC(=O)[C@H](CC(=O)O)NC(=O)COCCOCCNC(=O)COCCOCCNC(=O)[C@H](CCCCN)NC(=O)CNC(=O)[C@H](CCCCN)NC(=O)[C@@H](NC(=O)[C@H](CC(C)C)NC(=O)[C@H](Cc1c[nH]c2ccccc12)NC(=O)[C@H](CCC(=O)O)NC(=O)[C@@H](NC(=O)[C@H](Cc1ccccc1)NC(=O)[C@H](CCC(=O)O)NC(=O)[C@H](CCCCNC(=O)COCCOCCNC(=O)COCCOCCNC(=O)CC[C@H](NC(=O)CCCCCCCCCCCCCCCCC(=O)O)C(=O)O)NC(=O)[C@H](C)NC(=O)[C@H](C)NC(=O)[C@H](CCC(=O)O)NC(=O)[C@H](CCC(=O)O)NC(=O)[C@H](CCC(=O)O)NC(=O)[C@H](CC(C)C)NC(=O)[C@@H](NC(=O)[C@H](CCC(=O)O)NC(=O)[C@@H](NC(=O)[C@@H](NC(=O)[C@H](CC(=O)O)NC(=O)[C@H](CC(N)=O)NC(=O)[C@@H](NC(=O)[C@H](Cc1ccc(O)cc1)NC(=O)[C@@H](NC(=O)CNC(=O)[C@H](CCC(=O)O)NC(=O)C(C)(C)NC(=O)[C@@H](N)Cc1cnc[nH]1)[C@@H](C)O)[C@@H](C)O)C(C)C)[C@@H](C)O)[C@@H](C)O)[C@@H](C)CC)[C@@H](C)CC)C(=O)NCC(=O)N[C@@H](Cc1c[nH]c2ccccc12)C(=O)N[C@@H](CCCC)C(=O)N(C)[C@H](CC(=O)O)C(=O)N(C)[C@@H](Cc1ccccc1)C(N)=O | Active | Active | Active | Dde | 21.4 | Non-Toxic | Non-Toxic | Active | Active | Active | Active | Active | Active | Active | Active | Active | 30.6 | Active | Activity [21]: Non-Toxic; Activity [22]: Non-Toxic; inhibition in vivo at 0.025 µmol/kg (Rattus norvegicus): 33%; Activity [23]: Non-Toxic; Activity (Mus musculus [24]): Active; Activity [25]: Non-Toxic; Activity [26]: Non-Toxic; Activity [27]: Non-Toxic; Activity [28]: Non-Toxic; Activity (Mus musculus [29]): Active; Activity (Mus musculus [30]): Active; Activity (Mus musculus [31]): Active; Activity (Mus musculus [32]): Active; Activity (Mus musculus [33]): Active; Activity (Mus musculus [34]): Active; Activity [35]: Non-Toxic; Activity [36]: Non-Toxic; Activity [37]: Toxic |
